What was measured:
migraine = conditions: tryptophan administered in the form of 5-HTP; cited from earlier work
[1] = tested on: models of Parkinson's disease; conditions: intermittent nicotine treatment; cited from earlier work
[2] = nicotine after extraction (Example 1); clinical studies

Row | SMILES | aborting or significantly mitigating pain after onset of a migraine (migraine) | effect in migraine prevention (migraine) | reduction of medication-induced dyskinesias [1] [%] | side effects on use for treatment [2]
1 | N[C@@H](Cc1c[nH]c2ccc(O)cc12)C(=O)O [5-HTP, 5-Hydroxytryptophan] | ineffective | only moderate effects |  | 
2 | CN1CCCC1c1cccnc1 (stereo not shown) [nicotine] |  |  | ≤ 50 | without side effects such as tachyphylaxis

From patent US20160340334A1, “METHOD FOR ISOLATION OF ALKALOIDS AND AMINO ACIDS, AND CO[…] ALKALOIDS AND AMINO ACIDS” (priority 2015, published 2016)
